Measured values taken from patent US4032641A, “Nicotinoyl carnitine derivatives” (Tanabe Seiyaku Co., Ltd., priority 1976, dated 1977).
Where a name gives a salt, the structure may show the parent alone.

Key:
Serum-triglyceride = assay: Experiment II: serum-triglyceride after oral administration to fasted rats; format: in vivo, rat; settings: 1 mmol/kg, rats about 170 g, mean ± standard error
Method: Test compounds were administered orally to groups of 5 rats (body weight: about 170 g) which fasted overnight. Blood samples were collected from the tail vain at intervals, and serum-triglyceride was determined.

[1] = Experiment III: acute toxicity, oral, SD-strain male rats (Van der Waerden's Method); settings: rat, in vivo
Method: (§1) Test compounds were administered orally to ddY male mice or SD-strain male rats. Seventy-two hours after the administration, 50% lethal dose of the test compounds were estimated in accordance with Van der Waerden's Method.

[2] = Experiment III: acute toxicity, oral, ddY male mice (Van der Waerden's Method); settings: mouse, in vivo, ddY-strain male mice
Method: as §1

Serum-cholesterol = assay: Experiment I: serum-cholesterol after oral administration to fasted rats; format: in vivo, rat; settings: 1 mmol/kg, mean
Method: (§2) Test compounds are administered orally to groups of 5 rats (body weight: about 290 g) which fasted overnight. Blood samples were collected from the tail vein at intervals. Blood free fatty acid, serum-triglyceride and serum-cholesterol were determined, respectively.

Serum triglyceride = assay: Experiment I: serum-triglyceride after oral administration to fasted rats; format: in vivo, rat; settings: 1 mmol/kg, rats about 290 g, mean
Method: as §2

Blood-free fatty acids = assay: Experiment I: blood free fatty acid after oral administration to fasted rats; format: in vivo, rat; settings: 1 mmol/kg, mean
Method: as §2

[3] = use as hypolipidemic agent; known; cited from earlier work
[4] = tested on: cholesterol and triglyceride levels in plasma; settings: literature; cited from earlier work
[5] = 6 hrs after oral administration
[6] = 12 hrs after oral administration
[7] = 10 hrs after oral administration
[8] = 0 hrs after oral administration
[9] = 2 hrs after oral administration

Row | Structure (SMILES) | Serum-triglyceride (Serum-triglyceride; [5]) [mg/dL] | Serum-triglyceride (Serum-triglyceride; [6]) [mg/dL] | LD50 at 72 h [1] [mg/kg] | LD50 at 72 h [2] [mg/kg] | Serum-cholesterol (Serum-cholesterol; [5]) [mg/dL] | Serum-cholesterol (Serum-cholesterol; [7]) [mg/dL] | Serum triglyceride (Serum triglyceride; [5]) [mg/dL] | Serum triglyceride (Serum triglyceride; [7]) [mg/dL] | Blood-free fatty acids (Blood-free fatty acids; [8]) [μ moles/dl] | Blood-free fatty acids (Blood-free fatty acids; [9]) [μ moles/dl] | Blood-free fatty acids (Blood-free fatty acids; [5]) [μ moles/dl] | Blood-free fatty acids (Blood-free fatty acids; [7]) [μ moles/dl] | side effects [3] | cholesterol and triglyceride levels in plasma [4]
1 | CCOC(=O)CC(C[N+](C)(C)C)OC(=O)c1cccnc1 (stereo not shown) [B, Nicotinoyl carnitine ethyl ester chloride. H2 O] | 13 ± 5 | 13 ± 4 | 6900 | 5900 | – | – | – | – | – | – | – | – | – | –
2 | C[N+](C)(C)CC(CC(=O)OCc1ccccc1)OC(=O)c1cccnc1 (stereo not shown) [C, Nicotinoyl carnitine benzyl ester chloride] | 10 ± 1 | 23 ± 3 | – | – | – | – | – | – | – | – | – | – | – | –
3 | C[N+](C)(C)CC(CC(N)=O)OC(=O)c1cccnc1 (stereo not shown) [D, Nicotinoyl carnitine amide chloride . HCl] | – | – | > 7000 | > 7200 | – | – | – | – | – | – | – | – | – | –
4 | CCOC(=O)CC(C[N+](C)(C)C)OC(=O)c1cccnc1 (stereo not shown) [A, Nicotinoyl carnitine ethyl ester nitrate . HNO3] | – | – | – | – | 55 | 50 | 12 | 16 | 52 | 27 | 29 | 65 | – | –
5 | O=C(O)c1cccnc1 [Nicotinic acid, nicotinic acid, reference compound] | 28 ± 7 | 34 ± 5 | – | – | 74 | 70 | 22 | 27 | 38 | 22 | 60 | 66 | undesirable side effects such as facial skin flush and itching | can be decreased
